IC50 and AC50 data for 5 compounds are collected here from ChEMBL document CHEMBL1201862, “PubChem BioAssay data set” (2004).

The target of one assay is Aspartyl aminopeptidase (Plasmodium falciparum 3D7, UniProt Q8I2J3).
In the next assay the target is Procathepsin L (Homo sapiens, UniProt P07711).
Assay [1] deals with Acyl-homoserine lactone acylase PvdQ (Pseudomonas aeruginosa (strain LESB58), UniProt Q9I194). Briefly: P. aeruginosa PvdQ acylase inhibitors, dose response, biochemical, fluorescence, plate reader and imaging, cherry-picks (AID 493231).
Acyl-homoserine lactone acylase PvdQ, sequence (Q9I194 24-193 limits assumed): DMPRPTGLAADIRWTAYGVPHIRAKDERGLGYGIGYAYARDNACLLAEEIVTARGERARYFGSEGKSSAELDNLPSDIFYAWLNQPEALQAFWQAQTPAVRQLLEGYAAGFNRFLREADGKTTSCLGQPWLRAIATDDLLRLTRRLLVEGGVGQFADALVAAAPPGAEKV
Acyl-homoserine lactone acylase PvdQ, sequence (Q9I194 217-762 limits assumed): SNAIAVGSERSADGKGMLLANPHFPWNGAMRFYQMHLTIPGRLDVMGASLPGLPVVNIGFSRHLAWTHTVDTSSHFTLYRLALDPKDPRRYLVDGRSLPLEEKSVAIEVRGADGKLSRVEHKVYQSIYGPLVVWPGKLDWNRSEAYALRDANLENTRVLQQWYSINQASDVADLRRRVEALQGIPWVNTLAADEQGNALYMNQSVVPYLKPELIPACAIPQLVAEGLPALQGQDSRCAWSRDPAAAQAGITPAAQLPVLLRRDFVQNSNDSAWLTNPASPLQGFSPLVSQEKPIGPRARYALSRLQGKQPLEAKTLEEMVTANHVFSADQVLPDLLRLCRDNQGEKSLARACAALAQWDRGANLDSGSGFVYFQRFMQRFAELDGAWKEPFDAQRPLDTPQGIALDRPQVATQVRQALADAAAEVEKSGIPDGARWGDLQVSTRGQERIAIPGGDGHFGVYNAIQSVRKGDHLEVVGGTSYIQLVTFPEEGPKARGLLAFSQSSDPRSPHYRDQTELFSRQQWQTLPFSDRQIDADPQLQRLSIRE
Assay [2] can be described thus: Counterscreen for IDE inhibitors: Luminescence-based cell-based high throughput dose response assay to identify compounds that are cytotoxic to HEK cells. [Related pubchem assays: 434962 (Primary screen (IDE inhibitors in singlicate)), 449730 (Counterscreen (Cytotoxicity in triplicate)), 435028 (Confirmation (IDE inhibitors in triplicate)) …. In kind it is functional. Conditions: HEK293. (The purpose of a counterscreen is to sort out artefacts and off-target activity.)

The target of the next assay is T1, Insulin-degrading enzyme (Homo sapiens, UniProt P14735).
T1 sequence (P14735 whole entry): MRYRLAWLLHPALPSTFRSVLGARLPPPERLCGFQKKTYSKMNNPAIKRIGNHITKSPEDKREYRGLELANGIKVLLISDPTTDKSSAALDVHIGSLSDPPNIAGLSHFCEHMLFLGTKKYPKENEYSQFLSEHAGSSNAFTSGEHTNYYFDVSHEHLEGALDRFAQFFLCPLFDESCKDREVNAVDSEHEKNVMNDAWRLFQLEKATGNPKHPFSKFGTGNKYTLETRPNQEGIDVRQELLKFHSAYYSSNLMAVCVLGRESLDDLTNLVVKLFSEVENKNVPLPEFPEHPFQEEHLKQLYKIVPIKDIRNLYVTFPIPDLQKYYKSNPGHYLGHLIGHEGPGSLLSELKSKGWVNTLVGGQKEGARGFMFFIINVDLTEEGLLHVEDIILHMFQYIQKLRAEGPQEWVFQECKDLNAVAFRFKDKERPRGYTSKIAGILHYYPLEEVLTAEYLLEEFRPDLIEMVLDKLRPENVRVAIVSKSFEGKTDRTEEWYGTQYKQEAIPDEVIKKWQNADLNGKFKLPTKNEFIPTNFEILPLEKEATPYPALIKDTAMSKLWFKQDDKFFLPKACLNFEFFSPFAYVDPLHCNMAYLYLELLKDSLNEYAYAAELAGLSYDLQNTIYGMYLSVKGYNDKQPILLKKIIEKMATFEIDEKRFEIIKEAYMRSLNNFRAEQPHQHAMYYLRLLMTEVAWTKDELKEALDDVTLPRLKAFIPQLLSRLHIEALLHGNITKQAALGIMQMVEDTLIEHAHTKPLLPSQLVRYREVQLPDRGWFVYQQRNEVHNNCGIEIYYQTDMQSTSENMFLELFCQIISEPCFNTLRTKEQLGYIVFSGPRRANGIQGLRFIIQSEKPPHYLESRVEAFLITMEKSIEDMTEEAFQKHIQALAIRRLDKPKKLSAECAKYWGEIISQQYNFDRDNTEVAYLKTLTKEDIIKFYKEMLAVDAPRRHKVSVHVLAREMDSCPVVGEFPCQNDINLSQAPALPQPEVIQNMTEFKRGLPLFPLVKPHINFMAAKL
Briefly: Dose Response: Fluorescence polarization-based cell-based high throughput dose response assay for inhibitors of insulin-degrading enzyme (IDE). [Related pubchem assays: 434962 (Primary screen (IDE inhibitors in singlicate)), 449730 (Counterscreen (Cytotoxicity in triplicate)), 435028 (Confirmation (IDE inhibitors in triplicate)), 434984 (Summary …. The class given is functional. In general terms: Fluorescence polarisation rises when a labelled molecule tumbles more slowly, as on binding a larger partner.

Calls of active or inactive are those of the source.

Aspartyl aminopeptidase, sequence (Q8I2J3 whole entry): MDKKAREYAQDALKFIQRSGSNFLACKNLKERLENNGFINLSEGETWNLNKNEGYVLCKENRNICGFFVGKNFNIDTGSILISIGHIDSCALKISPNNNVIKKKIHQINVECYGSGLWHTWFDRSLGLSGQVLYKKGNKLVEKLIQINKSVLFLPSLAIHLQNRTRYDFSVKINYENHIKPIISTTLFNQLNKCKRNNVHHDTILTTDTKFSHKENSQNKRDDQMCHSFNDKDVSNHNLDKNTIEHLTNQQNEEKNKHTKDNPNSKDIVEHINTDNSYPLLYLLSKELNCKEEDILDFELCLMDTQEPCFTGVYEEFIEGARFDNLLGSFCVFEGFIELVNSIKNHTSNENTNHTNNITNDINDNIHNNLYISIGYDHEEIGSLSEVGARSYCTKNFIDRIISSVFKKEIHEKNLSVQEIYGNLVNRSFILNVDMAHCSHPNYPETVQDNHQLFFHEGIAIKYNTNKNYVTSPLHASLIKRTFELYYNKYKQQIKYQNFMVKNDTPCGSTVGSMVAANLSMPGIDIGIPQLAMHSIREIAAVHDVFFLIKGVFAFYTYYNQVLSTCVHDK
Procathepsin L, sequence (P07711 whole entry): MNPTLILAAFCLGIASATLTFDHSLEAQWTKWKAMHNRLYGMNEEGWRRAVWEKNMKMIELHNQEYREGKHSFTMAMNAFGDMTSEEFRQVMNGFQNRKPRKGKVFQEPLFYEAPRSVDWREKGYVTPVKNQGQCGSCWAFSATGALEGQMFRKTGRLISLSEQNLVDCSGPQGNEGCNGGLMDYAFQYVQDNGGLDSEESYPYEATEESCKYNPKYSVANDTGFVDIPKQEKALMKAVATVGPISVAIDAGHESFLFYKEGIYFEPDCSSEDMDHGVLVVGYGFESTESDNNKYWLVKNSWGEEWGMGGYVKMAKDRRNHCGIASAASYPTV

Consider `CCOc1cc(C(=O)NC(=S)Nn2cnnc2)cc(OCC)c1OCC`, for which the IC50 (usually the concentration at which inhibition is half-maximal) is 0.921 µM (active) at Aspartyl aminopeptidase and > 59.6 µM (not active) on Procathepsin L.
In the case of `Cc1cc(C)nc(N(C#N)Cc2ccc([N+](=O)[O-])cc2)n1`, in assay [1], the AC50 (as a rule, the concentration at which the activity in the assay is half-maximal) was > 100 µM (inactive).
As for `CC(=O)Nc1cc(/N=C/c2ccc(O)cc2O)c(Cl)cc1Cl`, the IC50 was 16 µM (not active) in assay [2] and > 6.22 µM (active) at Insulin-degrading enzyme.
Turning to `COc1ccc(C(=O)n2cnnc2N)cc1`, the half-inhibitory concentration (IC50) at Aspartyl aminopeptidase is 2.51 µM (active); against Procathepsin L it was > 59.6 µM (not active).
Take `CCOC(=O)c1ccc(NC(=O)c2ccco2)cc1`: the AC50 in assay [1] was 57.2 µM (active).
